The values below come from ChEMBL document CHEMBL3352097, “Small molecule inhibitors targeting activator protein 1 (AP-1)” (J Med Chem, 2014).

Where only a bound is given, the exact number is not on record here.

In test [1] the target is Transcription factor Jun (Rattus norvegicus, UniProt P17325). The experiment in a line: Inhibition of AP-1-mediated collagenase production in IL1alpha-stimulated Lewis rat synovial cells.
The target in test [2] is T1, Transcription factor Jun (Homo sapiens, UniProt P05412). The experiment in a line: Inhibition of AP-1 (unknown origin) binding to AP-1 oligonucleotide by gel shift assay.
T1 sequence (P05412 whole entry): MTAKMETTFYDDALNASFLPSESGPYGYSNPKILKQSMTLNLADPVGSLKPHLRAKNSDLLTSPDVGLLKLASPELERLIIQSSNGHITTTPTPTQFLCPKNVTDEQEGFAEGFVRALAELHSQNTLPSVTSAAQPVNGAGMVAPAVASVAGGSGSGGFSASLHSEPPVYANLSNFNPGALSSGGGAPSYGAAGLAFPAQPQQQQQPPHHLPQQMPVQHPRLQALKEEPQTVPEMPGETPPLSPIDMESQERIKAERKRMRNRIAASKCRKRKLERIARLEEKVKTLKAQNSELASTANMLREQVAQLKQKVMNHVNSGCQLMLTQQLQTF
Test [3] has as its target T2, Retinoic acid receptor RXR-alpha (Homo sapiens, UniProt P19793).
T2 sequence (P19793 whole entry): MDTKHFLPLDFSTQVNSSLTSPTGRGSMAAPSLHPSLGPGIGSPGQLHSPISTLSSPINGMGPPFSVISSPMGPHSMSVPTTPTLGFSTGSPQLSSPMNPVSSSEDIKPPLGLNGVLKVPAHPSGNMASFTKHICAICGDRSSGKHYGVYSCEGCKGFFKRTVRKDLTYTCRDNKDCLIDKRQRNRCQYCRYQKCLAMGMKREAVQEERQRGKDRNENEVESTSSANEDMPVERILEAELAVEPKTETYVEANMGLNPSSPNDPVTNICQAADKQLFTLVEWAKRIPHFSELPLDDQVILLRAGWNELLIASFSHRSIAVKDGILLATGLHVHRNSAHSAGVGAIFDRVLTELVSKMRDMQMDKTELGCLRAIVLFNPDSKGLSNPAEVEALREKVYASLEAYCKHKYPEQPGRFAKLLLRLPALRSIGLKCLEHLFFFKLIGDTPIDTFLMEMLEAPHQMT
The experiment in a line: Activity at RXRalpha (unknown origin).

Test [4] concerns the target T3, Retinoic acid receptor gamma (Homo sapiens, UniProt P13631).
T3 sequence (P13631 whole entry): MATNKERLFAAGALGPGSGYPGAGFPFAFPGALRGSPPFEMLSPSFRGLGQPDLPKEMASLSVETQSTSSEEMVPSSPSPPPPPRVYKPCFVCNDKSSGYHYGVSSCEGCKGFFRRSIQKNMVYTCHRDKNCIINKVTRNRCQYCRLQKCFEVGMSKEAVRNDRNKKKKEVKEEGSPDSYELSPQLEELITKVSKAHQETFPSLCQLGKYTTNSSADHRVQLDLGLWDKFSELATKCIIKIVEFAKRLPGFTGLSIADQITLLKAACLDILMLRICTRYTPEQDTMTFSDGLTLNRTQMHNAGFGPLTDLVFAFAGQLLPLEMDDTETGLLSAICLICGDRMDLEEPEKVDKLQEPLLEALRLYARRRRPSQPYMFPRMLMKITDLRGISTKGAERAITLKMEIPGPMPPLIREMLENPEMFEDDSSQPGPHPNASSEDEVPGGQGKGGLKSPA
The experiment in a line: Activity at RARgamma (unknown origin).

Test [5] concerns the target T4, Retinoic acid receptor beta (Homo sapiens, UniProt P10826).
T4 sequence (P10826 whole entry): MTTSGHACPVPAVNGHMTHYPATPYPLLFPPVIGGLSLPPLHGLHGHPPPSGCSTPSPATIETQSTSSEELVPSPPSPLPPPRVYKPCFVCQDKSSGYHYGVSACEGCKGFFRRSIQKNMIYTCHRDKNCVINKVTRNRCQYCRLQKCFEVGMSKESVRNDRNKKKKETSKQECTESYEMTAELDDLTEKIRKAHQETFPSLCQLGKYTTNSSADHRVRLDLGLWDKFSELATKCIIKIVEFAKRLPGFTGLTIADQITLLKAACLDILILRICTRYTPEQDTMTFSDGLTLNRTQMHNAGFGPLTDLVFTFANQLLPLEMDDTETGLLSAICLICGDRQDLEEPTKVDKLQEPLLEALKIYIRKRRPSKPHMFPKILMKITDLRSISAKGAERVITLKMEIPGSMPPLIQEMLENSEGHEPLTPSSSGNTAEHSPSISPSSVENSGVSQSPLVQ
The experiment in a line: Activity at RARbeta (unknown origin).

Test [6] deals with T5, Retinoic acid receptor alpha (Homo sapiens, UniProt P10276).
T5 sequence (P10276 whole entry): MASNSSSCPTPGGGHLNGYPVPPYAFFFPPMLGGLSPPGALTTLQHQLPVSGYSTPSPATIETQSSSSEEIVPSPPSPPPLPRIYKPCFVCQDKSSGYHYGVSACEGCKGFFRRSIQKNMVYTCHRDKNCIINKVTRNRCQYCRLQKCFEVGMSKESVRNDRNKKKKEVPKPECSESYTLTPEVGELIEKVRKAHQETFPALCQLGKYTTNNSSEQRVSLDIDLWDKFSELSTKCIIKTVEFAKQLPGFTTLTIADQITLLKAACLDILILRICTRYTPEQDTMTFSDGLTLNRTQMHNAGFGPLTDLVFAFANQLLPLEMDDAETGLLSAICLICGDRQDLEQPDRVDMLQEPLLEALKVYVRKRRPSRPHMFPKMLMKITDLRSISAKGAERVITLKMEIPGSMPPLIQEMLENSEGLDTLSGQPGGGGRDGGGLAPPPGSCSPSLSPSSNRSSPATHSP
The experiment in a line: Activity at RARalpha (unknown origin).

The species entered for the next test is Gallus gallus. The experiment in a line: Antiangiogenic activity in chicken embryo assessed as inhibition of neovascularization at 10 ug. The class given is functional.
The next test concerns Rattus norvegicus. The experiment in a line: Antiinflammatory activity in carrageenan injection-induced rat inflammation model assessed as inhibition of rat paw edema. The format is functional.
Test [7] concerns the target T1, Transcription factor Jun. The experiment in a line: Inhibition of AP-1-mediated transcriptional activation in HEK293 cells by luciferase reporter gene assay. The class given is cell-based.

Sequence of Transcription factor Jun (Rattus norvegicus, UniProt P17325) (P17325 whole entry): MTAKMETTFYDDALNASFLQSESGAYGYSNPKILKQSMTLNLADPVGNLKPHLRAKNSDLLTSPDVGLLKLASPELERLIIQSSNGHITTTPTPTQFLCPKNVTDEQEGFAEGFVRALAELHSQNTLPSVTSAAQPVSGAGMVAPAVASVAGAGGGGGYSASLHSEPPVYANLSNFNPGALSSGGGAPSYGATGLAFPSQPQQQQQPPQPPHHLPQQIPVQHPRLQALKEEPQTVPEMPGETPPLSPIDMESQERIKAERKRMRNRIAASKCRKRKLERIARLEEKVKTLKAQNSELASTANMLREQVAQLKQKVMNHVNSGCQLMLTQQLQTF

`CCCc1c(C(=O)O)c(O)cc2c1C(=O)c1c(O)cccc1C2=O`: the IC50 against Transcription factor Jun [1] came to 60 µM; at Transcription factor Jun [2], 100 µM.
On to `CC1=C(/C=C/C(=C/C=C/C(C)=C/C(=O)O)c2ccc(C)cc2)C(C)(C)CCC1`, for which the EC50 in test [3], in [4], in test [5] and in [6] was greater than 1 µM each time.
In the case of `COc1cc(/C=C/C(=O)/C=C(O)/C=C/c2cc(OC)c(O)c([N+](=O)[O-])c2)cc([N+](=O)[O-])c1O`, the “inhibition (INH)” value in the test filed under Gallus gallus worked out at 68%.
`CNc1nc(-c2ccccc2)c(-c2nc3ccccc3c(=O)n2-c2ccccc2OC)s1`: in the test with Rattus norvegicus, the “inhibition (INH)” value stood at 56%. At Transcription factor Jun [7], this compound displayed an IC50 of 0.5 µM.
